Assay results taken from patent publication US11731986B2 (Sanford Burnham Prebys Medical Discovery Institute, priority 2017, dated 2023).
pIC50: −log10 of the molar value.

Molecular target: T1, human LMPTP-A (Homo sapiens, UniProt P24666)
T1 sequence (P24666 1-158): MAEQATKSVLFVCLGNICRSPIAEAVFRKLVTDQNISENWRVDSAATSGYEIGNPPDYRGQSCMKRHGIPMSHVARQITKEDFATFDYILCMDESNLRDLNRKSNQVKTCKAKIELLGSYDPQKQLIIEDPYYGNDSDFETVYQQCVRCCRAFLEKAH
Test: Enzyme Assay of Inhibition of LMPTP-A (phosphatase assay, OMFP or pNPP substrate)
Format: biochemical
Conditions: Bis-Tris pH 6.0, 37° C.
Description: Phosphatase assays were performed in buffer containing 50 mM Bis-Tris, pH 6.0, 1 mM DTT and 0.01% Triton X-100 at 37° C. For assays conducted with 3-O-methylfluorescein phosphate (OMFP) as substrate, fluorescence was monitored continuously at λex=485 and λem=525 nm. For assays conducted with para-nitrophenylphosphate (pNPP) as substrate, the reaction was stopped by addition of 2× reaction volume of 1 M NaOH, and absorbance was measured at 405 nm. IC50 values of compounds of Formula (I), (II), (III), or (IV) were determined from plots of inhibitor concentration versus percentage of enzyme activity. For inhibitor selectivity assays, each PTP was incubated with either 0.4 mM OMFP or 5 mM pNPP in the presence of 40 μM compound or DMSO. […] For the inhibitor reversibility assay, 50 nM human LMPTP-A was pre-incubated with 10 μM of compound of Formula (I), (II), (III), or (IV) or DMSO for 5 min. The enzyme was diluted 100× in phosphatase assay buffer containing 0.4 mM OMFP and fluorescence was measured at the indicated time points.

Compound	pIC50
CCN1CCN(C(=O)c2cc3ccc(-c4cc(NCCCN5CCCCC5)c5cnccc5n4)cc3s2)CC1 [(4-ethylpiperazin-1-yl)(6-(4-(3-(piperidin-1-yl)propylamino)-1,6-naphthyridin-2-yl)benzo[b]thiophen-2-yl)methanone]	4.70 to 6.00
CN1CCC(Nc2cc(-c3ccc4c(c3)cc(C(=O)NCCCN3CCCCC3)n4C)nc3ccncc23)CC1 [1-Methyl-5-(4-((1-methylpiperidin-4-yl)amino)-1,6-naphthyridin-2-yl)-N-(3-(piperidin-1-yl)propyl)-1H-indole-2-carboxamide]	4.70 to 6.00
CN1CCC(Nc2cc(-c3ccc4c(c3)cc(C(=O)N3CCN(C)CC3)n4C)nc3ccncc23)CC1 [(1-Methyl-5-(4-((1-methylpiperidin-4-yl)amino)-1,6-naphthyridin-2-yl)-1H-indol-2-yl)(4-methylpiperazin-1-yl)methanone]	≥ 6.00
COC(=O)c1ccc(-c2cc(NCCCN3CCCCC3)c3cnccc3n2)c(C(N)=O)c1 [methyl 3-carbamoyl-4-(4-((3-(piperidin-1-yl)propyl)amino)-1,6-naphthyridin-2-yl)benzoate]	4.70 to 6.00
CCN(CC)C(=O)c1ccc(-c2cc(NCCN3CCS(=O)(=O)CC3)c3cnccc3n2)cc1 [4-(4-((2-(1,1-Dioxidothiomorpholino)ethyl)amino)-1,6-naphthyridin-2-yl)-N,N-diethylbenzamide]	4.70 to 6.00
CCN(CC)C(=O)c1ccc(-c2cc(NCCN3CCNCC3)c3cnccc3n2)cc1 [N,N-diethyl-4-(4-(2-(piperazin-1-yl)ethylamino)-1,6-naphthyridin-2-yl)benzamide]	4.70 to 6.00
CNc1cc(-c2ccc3c(c2)cc(C(N)=O)n3C)nc2ccncc12 [1-methyl-5-(4-(methylamino)-1,6-naphthyridin-2-yl)-1H-indole-2-carboxamide]	4.70 to 6.00
CCN(CC)C(=O)c1ccc(-c2cc(Nc3ccc(NCCOC)cc3)c3cnccc3n2)cc1 [N,N-Diethyl-4-(4-(4-(2-methoxyethylamino)phenylamino)-1,6-naphthyridin-2-yl)benzamide]	4.70 to 6.00
CN1CCN(CCCNC(=O)c2cc3cc(-c4cc(NCCCN5CCCCC5)c5cnccc5n4)ccc3n2C)CC1 [1-methyl-N-(3-(4-methylpiperazin-1-yl)propyl)-5-(4-((3-(piperidin-1-yl)propyl)amino)-1,6-naphthyridin-2-yl)-1H-indole-2-carboxamide]	≥ 6.00
CN1CCC(NC(=O)c2ccc(-c3cc(NC4CCOCC4)c4cnccc4n3)cc2)CC1 [N-(1-Methylpiperidin-4-yl)-4-(4-((tetrahydro-2H-pyran-4-yl)amino)-1,6-naphthyridin-2-yl)benzamide]	≥ 6.00
CN1CCC(CCNC(=O)/C=C/c2ccc(-c3cc(NCCCN4CCCCC4)c4cnccc4n3)cc2)CC1 [(E)-N-(2-(1-Methylpiperidin-4-yl)ethyl)-3-(4-(4-(3-(piperidin-1-yl)propylamino)-1,6-naphthyridin-2-yl)phenyl)acrylamide]	≥ 6.00
methyl-N-(1-methylpiperidin-4-yl)-5-(4-((3-(piperidin-1-yl)propyl)amino)-1,6-naphthyridin-2-yl)-1H-pyrrolo[3,2-b]pyridine-2-carboxamide	4.70 to 6.00
O=C(NC1CCNCC1)c1cc2ccc(-c3cc(NCCCN4CCCCC4)c4cnccc4n3)cc2[nH]1 [6-(4-(3-(Piperidin-1-yl)propylamino)-1,6-naphthyridin-2-yl)-N-(piperidin-4-yl)-1H-indole-2-carboxamide]	4.70 to 6.00
CCCNc1cc(-c2ccc3c(c2)cc(C(=O)NC2CCN(C)CC2)n3C)nc2ccncc12 [1-methyl-N-(1-methylpiperidin-4-yl)-5-(4-(propylamino)-1,6-naphthyridin-2-yl)-1H-indole-2-carboxamide]	≥ 6.00
CN1CCC(NC(=O)c2cc3cc(-c4cc(N(C)CCCN5CCCCC5)c5cnccc5n4)ccc3n2C)CC1 [1-methyl-5-(4-(methyl(3-(piperidin-1-yl)propyl)amino)-1,6-naphthyridin-2-yl)-N-(1-methylpiperidin-4-yl)-1H-indole-2-carboxamide]	4.70 to 6.00
CCN1CCC(CNC(=O)CCOc2ccc(-c3cc(NCCCN4CCCCC4)c4cnccc4n3)cc2)CC1 [N-((1-ethylpiperidin-4-yl)methyl)-3-(4-(4-((3-(piperidin-1-yl)propyl)amino)-1,6-naphthyridin-2-yl)phenoxy)propanamide]	≤ 4.70
Cn1c(C(=O)NCCc2ccncc2)cc2cc(-c3cc(NCCCN4CCCCC4)c4cnccc4n3)ccc21 [1-methyl-5-(4-((3-(piperidin-1-yl)propyl)amino)-1,6-naphthyridin-2-yl)-N-(2-(pyridin-4-yl)ethyl)-1H-indole-2-carboxamide]	≥ 6.00
CN1CCC(NC(=O)c2ccc(-c3cc(NC4CCN(C)C4)c4cnccc4n3)cc2)CC1 (centres unmarked) [N-(1-Methylpiperidin-4-yl)-4-(4-((1-methylpyrrolidin-3-yl)amino)-1,6-naphthyridin-2-yl)benzamide]	4.70 to 6.00

Compound	pIC50
CCN(CC)C(=O)c1ccc(-c2cc(NCCCN3CCN(S(C)(=O)=O)CC3)c3cnccc3n2)cc1 [N,N-Diethyl-4-(4-((3-(4-(methylsulfonyl)piperazin-1-yl)propyl)amino)-1,6-naphthyridin-2-yl)benzamide]	4.70 to 6.00
CN1CCC(N/C(=N\O)c2ccc(-c3cc(NCCCN4CCCCC4)c4cnccc4n3)cc2)CC1	4.70 to 6.00
CCN(CC)C(=O)CNC(=O)CCc1ccc(-c2cc(NCCCN3CCCCC3)c3cnccc3n2)cc1	≥ 6.00
CCN(CC)C(=O)c1ccc(-c2cc(NC3CCNC3)c3cnccc3n2)cc1 (centres unmarked) [N,N-diethyl-4-(4-(pyrrolidin-3-ylamino)-1,6-naphthyridin-2-yl)benzamide]	4.70 to 6.00
O=C(NCCCN1CCCCC1)c1cc2cc(-c3cc(NCCCN4CCCCC4)c4cnccc4n3)ccc2s1 [N-(3-(piperidin-1-yl)propyl)-5-(4-(3-(piperidin-1-yl)propylamino)-1,6-naphthyridin-2-yl)benzo[b]thiophene-2-carboxamide]	4.70 to 6.00
CCN(CC)C(=O)c1ccc(-c2cc(NCCCN3CCCCC3)c3cnccc3n2)c(C(N)=O)c1 [N1,N1-diethyl-4-(4-((3-(piperidin-1-yl)propyl)amino)-1,6-naphthyridin-2-yl)isophthalamide]	4.70 to 6.00
CN1CCC(NC(=O)CCc2ccc(-c3cc(NC4CCN(C)CC4)c4cnccc4n3)cc2)CC1 [N-(1-Methylpiperidin-4-yl)-3-(4-(4-(1-methylpiperidin-4-ylamino)-1,6-naphthyridin-2-yl)phenyl)propanamide]	≥ 6.00
CNc1cc(-c2ccc3[nH]c(C(=O)NCCCN4CCCCC4)nc3c2)nc2ccncc12 [5-(4-(methylamino)-1,6-naphthyridin-2-yl)-N-(3-(piperidin-1-yl)propyl)-1H-benzo[d]imidazole-2-carboxamide]	4.70 to 6.00
O=C(NC1CCNCC1)c1nc2cc(-c3cc(NCCCN4CCCCC4)c4cnccc4n3)ccc2[nH]1 [5-(4-((3-(piperidin-1-yl)propyl)amino)-1,6-naphthyridin-2-yl)-N-(piperidin-4-yl)-1H-benzo[d]imidazole-2-carboxamide]	≥ 6.00
O=C(O)/C=C/c1ccc(-c2cc(NCCCN3CCCCC3)c3cnccc3n2)s1 [(E)-3-(5-(4-(3-(Piperidin-1-yl)propylamino)-1,6-naphthyridin-2-yl)thiophen-2-yl)acrylic acid]	4.70 to 6.00
CCNc1cc(-c2ccc3c(c2)cc(C(=O)NC2CCN(C)CC2)n3C)nc2ccncc12 [5-(4-(ethylamino)-1,6-naphthyridin-2-yl)-1-methyl-N-(1-methylpiperidin-4-yl)-1H-indole-2-carboxamide]	≥ 6.00
CCN(CC)C(=O)c1ccc(-c2cc(NCCCN3CCCCC3)c3cnccc3n2)c(C(F)(F)F)c1 [N,N-diethyl-4-(4-((3-(piperidin-1-yl)propyl)amino)-1,6-naphthyridin-2-yl)-3-(trifluoromethyl)benzamide]	≥ 6.00
CN(C)CCNC(=O)c1nc2cc(-c3cc(Nc4ccc(CN5CCCC5)cc4)c4cnccc4n3)ccc2[nH]1 [N-(2-(dimethylamino)ethyl)-5-(4-((4-(pyrrolidin-1-ylmethyl)phenyl)amino)-1,6-naphthyridin-2-yl)-1H-benzo[d]imidazole-2-carboxamide]	≥ 6.00
CN1CCC(NC(=O)/C=C/c2ccc(-c3cc(NCCCN4CCCCC4)c4cnccc4n3)cc2)CC1 [(E)-N-(1-Methylpiperidin-4-yl)-3-(4-(4-(3-(piperidin-1-yl)propylamino)-1,6-naphthyridin-2-yl)phenyl)acrylamide]	≥ 6.00
N#Cc1c(-c2cc(NCCCN3CCCCC3)c3cnccc3n2)ccc2[nH]c(C(=O)NC3CCNCC3)nc12 [4-cyano-5-(4-((3-(piperidin-1-yl)propyl)amino)-1,6-naphthyridin-2-yl)-N-(piperidin-4-yl)-1H-benzo[d]imidazole-2-carboxamide]	4.70 to 6.00
CN1CCCN(CCNC(=O)CCc2ccc(-c3cc(NCCCN4CCCCC4)c4cnccc4n3)cc2)CC1 [N-(2-(4-Methyl-1,4-diazepan-1-yl)ethyl)-3-(4-(4-(3-(piperidin-1-yl)propylamino)-1,6-naphthyridin-2-yl)phenyl)propanamide]	≥ 6.00
CCN(CC)C(=O)c1ccc(-c2cc(NCCCN3CCCCC3)c3cccnc3n2)cc1 [N,N-diethyl-4-(4-(3-(piperidin-1-yl)propylamino)-1,8-naphthyridin-2-yl)benzamide]	≤ 4.70
